{
  "source": "patent US11020397B2",
  "about": "“Compounds and their use for reducing uric acid levels” (Acquist LLC, priority 2016, dated 2021)",
  "biological_target": "Xanthine oxidase (Homo sapiens (Human), UniProt P47989)",
  "sequence (P47989 whole entry, species assumed)": "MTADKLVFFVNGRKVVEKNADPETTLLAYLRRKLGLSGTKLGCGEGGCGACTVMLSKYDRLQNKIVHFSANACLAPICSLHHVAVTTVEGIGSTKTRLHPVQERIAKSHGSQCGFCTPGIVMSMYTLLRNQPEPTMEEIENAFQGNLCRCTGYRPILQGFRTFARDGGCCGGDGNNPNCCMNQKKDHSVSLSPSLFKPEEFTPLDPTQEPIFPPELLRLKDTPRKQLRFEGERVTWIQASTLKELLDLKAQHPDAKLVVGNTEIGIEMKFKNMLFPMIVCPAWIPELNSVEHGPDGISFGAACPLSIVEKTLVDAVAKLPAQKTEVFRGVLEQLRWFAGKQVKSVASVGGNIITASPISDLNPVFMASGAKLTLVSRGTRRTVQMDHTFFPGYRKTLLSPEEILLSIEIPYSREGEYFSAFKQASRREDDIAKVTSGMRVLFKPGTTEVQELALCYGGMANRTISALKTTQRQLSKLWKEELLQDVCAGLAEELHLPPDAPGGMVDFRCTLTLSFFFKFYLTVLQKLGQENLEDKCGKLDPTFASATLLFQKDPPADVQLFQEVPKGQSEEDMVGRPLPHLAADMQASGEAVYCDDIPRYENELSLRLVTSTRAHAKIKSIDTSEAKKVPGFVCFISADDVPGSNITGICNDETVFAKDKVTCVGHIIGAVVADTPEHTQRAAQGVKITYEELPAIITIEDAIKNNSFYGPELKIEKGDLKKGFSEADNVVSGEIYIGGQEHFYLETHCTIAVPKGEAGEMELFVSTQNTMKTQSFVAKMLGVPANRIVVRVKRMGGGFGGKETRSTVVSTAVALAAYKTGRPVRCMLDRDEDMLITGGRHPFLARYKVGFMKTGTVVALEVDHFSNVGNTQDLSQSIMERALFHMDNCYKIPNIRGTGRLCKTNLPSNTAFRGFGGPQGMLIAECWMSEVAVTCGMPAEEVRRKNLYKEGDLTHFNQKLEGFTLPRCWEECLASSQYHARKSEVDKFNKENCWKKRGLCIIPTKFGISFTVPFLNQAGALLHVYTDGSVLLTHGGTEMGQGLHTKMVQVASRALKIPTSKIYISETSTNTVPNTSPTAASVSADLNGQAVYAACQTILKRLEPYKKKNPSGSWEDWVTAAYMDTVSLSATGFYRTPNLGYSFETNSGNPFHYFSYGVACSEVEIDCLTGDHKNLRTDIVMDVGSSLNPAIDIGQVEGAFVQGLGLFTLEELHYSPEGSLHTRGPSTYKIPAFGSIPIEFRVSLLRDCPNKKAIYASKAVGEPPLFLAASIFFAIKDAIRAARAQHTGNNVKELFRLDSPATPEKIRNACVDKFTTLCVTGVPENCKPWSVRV",
  "assay": "Fluorescence-based xanthine oxidase activity assay",
  "assay_type": "biochemical",
  "details": "for Xanthine oxidase inhibition, verbal rating: compared to allopurinol",
  "key": {"[1]": {"details": "unit nM, read-out: Xanthine Oxidase IC50"}},
  "note": "Read-outs that look alike come from different tables or passages of the source.",
  "data": [
    {"smiles": "CCSc1nc(O)c(C(=O)Nc2ccc(-c3nn[nH]n3)cc2)c(=O)[nH]1", "note": "[Formula (IIp), N-(4-(1H-tetrazol-5-yl)phenyl)-2-(ethylthio)-4-hydroxy-6-oxo-1,6-dihydropyrimidine-5-carboxamide]", "values": [
      {"measurement": "IC50", "value": 200, "unit": "nM"},
      {"measurement": "Xanthine oxidase inhibition, verbal rating", "value": "particularly potent inhibitors of xanthine oxidase compared to allopurinol"}
    ]},
    {"smiles": "O=C(Nc1ccc(-c2c[nH]nn2)cc1)c1c(O)nc(SCC2CC2)[nH]c1=O", "note": "[Formula (IIo), N-(4-(1H-1,2,3-triazol-4-yl)phenyl)-2-((cyclopropylmethyl)thio)-4,6-dioxo-1,4,5,6-tetrahydropyrimidine-5-carboxamide]", "values": [
      {"measurement": "IC50", "value": 1140, "unit": "nM"}
    ]},
    {"smiles": "CSc1nc(O)c(C(=O)Nc2ccc(-c3c[nH]nn3)nc2)c(=O)[nH]1", "note": "[Formula (IIii), N-(6-(1H-1,2,3-triazol-4-yl)pyridin-3-yl)-4-hydroxy-2-(methylthio)-6-oxo-1,6-dihydropyrimidine-5-carboxamide]", "values": [
      {"measurement": "IC50", "value": 377, "unit": "nM"},
      {"measurement": "Xanthine oxidase inhibition, verbal rating", "value": "particularly potent inhibitors of xanthine oxidase compared to allopurinol"}
    ]},
    {"smiles": "O=C(Nc1ccc(-c2c[nH]nn2)cc1)c1c(O)nc(SC(F)(F)F)[nH]c1=O", "note": "[Formula (IIj)]", "values": [
      {"measurement": "IC50", "setting": "[1]", "value": "> 300000", "unit": "nM"}
    ]},
    {"smiles": "CC(C)Sc1nc(O)c(C(=O)Nc2ccc(-c3c[nH]nn3)cc2F)c(=O)[nH]1", "note": "[Formula (IIv), N-(2-Fluoro-4-(1H-1,2,3-triazol-4-yl)phenyl)-4-hydroxy-2-(isopropylthio)-6-oxo-1,6-dihydropyrimidine-5-carboxamide]", "values": [
      {"measurement": "IC50", "value": 100, "unit": "nM"}
    ]},
    {"smiles": "CSc1nc(O)c(C(=O)Nc2ccc(-c3c[nH]nn3)c(C(F)(F)F)c2)c(=O)[nH]1", "note": "[Formula (II6), N-(4-(1H-1,2,3-Triazol-4-yl)-3-(trifluoromethyl)phenyl)-4-hydroxy-2-(methylthio)-6-oxo-1,6-dihydropyrimidine-5-carboxamide]", "values": [
      {"measurement": "IC50", "setting": "[1]", "value": "> 10000", "unit": "nM"}
    ]},
    {"smiles": "CC(C)Sc1nc(O)c(C(=O)Nc2ccc(-c3c[nH]nn3)c(F)c2)c(=O)[nH]1", "note": "[Formula (IIw), N-(3-Fluoro-4-(1H-1,2,3-triazol-4-yl)phenyl)-4-hydroxy-2-(isopropylthio)-6-oxo-1,6-dihydropyrimidine-5-carboxamide]", "values": [
      {"measurement": "IC50", "value": 660, "unit": "nM"}
    ]},
    {"smiles": "CSc1nc(O)c(C(=O)Nc2ccc(-c3c[nH]nn3)cc2OC(F)(F)F)c(=O)[nH]1", "note": "[Formula (II3), N-(4-(1H-1,2,3-triazol-4-yl)-2-(trifluoromethoxy)phenyl)-4-hydroxy-2-(methylthio)-6-oxo-1,6-dihydropyrimidine-5-carboxamide]", "values": [
      {"measurement": "IC50", "value": 60, "unit": "nM"}
    ]},
    {"smiles": "CN(C)CCSc1nc(O)c(C(=O)Nc2ccc(-c3c[nH]nn3)cc2F)c(=O)[nH]1", "note": "[Formula (IIbb), 2-((2-(dimethylamino)ethyl)thio)-N-(2-fluoro-4-(1H-1,2,3-triazol-4-yl)phenyl)-4-hydroxy-6-oxo-1,6-dihydropyrimidine-5-carboxamide]", "values": [
      {"measurement": "IC50", "value": 206, "unit": "nM"}
    ]},
    {"smiles": "CC(C)Sc1nc(O)c(C(=O)Nc2ccc(-c3c[nH]nn3)cc2C(F)(F)F)c(=O)[nH]1", "note": "[Formula (II7), N-(4-(1H-1,2,3-Triazol-5-yl)-2-(trifluoromethyl)phenyl)-4-hydroxy-2-(isopropyl-thio)-6-oxo-1,6-dihydropyrimidine-5-carboxamide]", "values": [
      {"measurement": "IC50", "value": 70, "unit": "nM"}
    ]},
    {"smiles": "CSc1nc(O)c(C(=O)Nc2ccc(-c3c[nH]nn3)cc2F)c(=O)[nH]1", "note": "[Formula (IIs), N-(2-Fluoro-4-(1H-1,2,3-triazol-4-yl)phenyl)-4-hydroxy-2-(methylthio)-6-oxo-1,6-dihydropyrimidine-5-carboxamide]", "values": [
      {"measurement": "IC50", "value": 120, "unit": "nM"},
      {"measurement": "Xanthine oxidase inhibition, verbal rating", "value": "particularly potent inhibitors of xanthine oxidase compared to allopurinol"}
    ]},
    {"smiles": "CSc1nc(O)c(C(=O)Nc2ccc(-c3c[nH]nn3)c(F)c2)c(=O)[nH]1", "note": "[Formula (IIr), N-(3-Fluoro-4-(1H-1,2,3-triazol-4-yl)phenyl)-4-hydroxy-2-(methylthio)-6-oxo-1,6-dihydropyrimidine-5-carboxamide]", "values": [
      {"measurement": "IC50", "value": 210, "unit": "nM"},
      {"measurement": "Xanthine oxidase inhibition, verbal rating", "value": "particularly potent inhibitors of xanthine oxidase compared to allopurinol"}
    ]},
    {"smiles": "CCSc1nc(O)c(C(=O)Nc2ccc(-c3c[nH]nn3)cc2)c(=O)[nH]1", "note": "[Formula (IIl), N-(4-(1H-1,2,3-triazol-4-yl)phenyl)-2-(ethylthio)-4-hydroxy-6-oxo-1,6-dihydropyrimidine-5-carboxamide]", "values": [
      {"measurement": "Xanthine oxidase inhibition, verbal rating", "value": "particularly potent inhibitors of xanthine oxidase compared to allopurinol"},
      {"measurement": "IC50", "setting": "[1]", "value": "< 20", "unit": "nM"}
    ]},
    {"smiles": "CSc1nc(O)c(C(=O)Nc2ccc3nc(-c4c[nH]nn4)ccc3c2)c(=O)[nH]1", "note": "[Formula (II10), N-(2-(1H-1,2,3-triazol-4-yl)quinolin-6-yl)-4-hydroxy-2-(methylthio)-6-oxo-1,6-dihydropyrimidine-5-carboxamide]", "values": [
      {"measurement": "IC50", "value": 190, "unit": "nM"}
    ]},
    {"smiles": "CC(C)Sc1nc(O)c(C(=O)Nc2ccc(-c3c[nH]nn3)cc2)c(=O)[nH]1", "note": "[Formula (IIi), N-(4-(1H-1,2,3-triazol-5-yl)phenyl)-4-hydroxy-2-(isopropylthio)-6-oxo-1,6-dihydropyrimidine-5-carboxamide]", "values": [
      {"measurement": "Xanthine oxidase inhibition, verbal rating", "value": "particularly potent inhibitors of xanthine oxidase compared to allopurinol"},
      {"measurement": "IC50", "setting": "[1]", "value": "< 20", "unit": "nM"}
    ]},
    {"smiles": "CSc1nc(O)c(C(=O)Nc2ccc(-c3c[nH]nn3)cc2C#N)c(=O)[nH]1", "note": "[Formula (II5), N-(2-cyano-4-(1H-1,2,3-triazol-4-yl)phenyl)-4-hydroxy-2-(methylthio)-6-oxo-1,6-dihydropyrimidine-5-carboxamide]", "values": [
      {"measurement": "IC50", "value": 40, "unit": "nM"}
    ]},
    {"smiles": "CC(C)CSc1nc(O)c(C(=O)Nc2ccc(-c3c[nH]nn3)cc2)c(=O)[nH]1", "note": "[Formula (IIq), N-(4-(1H-1,2,3-triazol-4-yl)phenyl)-4-hydroxy-2-(isobutylthio)-6-oxo-1,6-dihydropyrimidine-5-carboxamide]", "values": [
      {"measurement": "IC50", "value": 40, "unit": "nM"},
      {"measurement": "Xanthine oxidase inhibition, verbal rating", "value": "particularly potent inhibitors of xanthine oxidase compared to allopurinol"}
    ]},
    {"smiles": "CSc1nc(O)c(C(=O)Nc2ccc(-c3c[nH]nn3)c(F)c2F)c(=O)[nH]1", "note": "[Formula (IIaa), N-(2,3-difluoro-4-(1H-1,2,3-triazol-4-yl)phenyl)-4,6-dihydroxy-2-(methylthio) pyrimidine-5-carboxamide]", "values": [
      {"measurement": "IC50", "value": 103, "unit": "nM"}
    ]},
    {"smiles": "CSc1nc(O)c(C(=O)Nc2c(F)cc(-c3c[nH]nn3)cc2F)c(=O)[nH]1", "note": "[Formula (IIt), N-(2,6-Difluoro-4-(1H-1,2,3-triazol-4-yl)phenyl)-4-hydroxy-2-(methylthio)-6-oxo-1,6-dihydropyrimidine-5-carboxamide]", "values": [
      {"measurement": "IC50", "value": 180, "unit": "nM"},
      {"measurement": "Xanthine oxidase inhibition, verbal rating", "value": "particularly potent inhibitors of xanthine oxidase compared to allopurinol"}
    ]},
    {"smiles": "CSc1nc(O)c(C(=O)Nc2ccc(-c3c[nH]nn3)cc2OC(F)F)c(=O)[nH]1", "note": "[Formula (II4), N-(2-(difluoromethoxy)-4-(1H-1,2,3-triazol-4-yl)phenyl)-4-hydroxy-2-(methylthio)-6-oxo-1,6-dihydropyrimidine-5-carboxamide]", "values": [
      {"measurement": "IC50", "value": 60, "unit": "nM"}
    ]},
    {"smiles": "O=C(Nc1ncc(-c2c[nH]nn2)s1)c1c(O)[nH]c(=O)[nH]c1=O", "note": "[Formula (Io), N-(5-(1H-1,2,3-Triazol-4-yl)thiazol-2-yl)-2,4,6-trihydroxypyrimidine-5-carboxamide]", "values": [
      {"measurement": "IC50", "value": 5300, "unit": "nM"}
    ]},
    {"smiles": "CSc1nc(O)c(C(=O)Nc2ncc(-c3c[nH]nn3)cc2C(F)(F)F)c(=O)[nH]1", "note": "[Formula (II8), N-(5-(1H-1,2,3-triazol-4-yl)-3-(trifluoromethyl)pyridin-2-yl)-4-hydroxy-2-(methylthio)-6-oxo-1,6-dihydropyrimidine-5-carboxamide]", "values": [
      {"measurement": "IC50", "value": 60, "unit": "nM"}
    ]}
  ]
}
